Assays:
Type in all cases: in vivo
[1] = tested on: Codling Moth larvae; assay: Repellency as feeding deterrence and mortality in Codling Moth larvae on treated media; details: for Repellency at 24 hours: first instar larva, control 8%
Experimental: Another test was designed to measure the repellency as feeding deterrence in Codling Moth larvae. The treatment was applied to the surface of a proprietary laboratory media in a tray with wells for each compound. The media was allowed to dry for 30-60 minutes so that larvae were not exposed to it as a liquid. One first instar codling moth larva was then placed on the treated media. The cover film was placed on the tray to prevent escapes. Ten additional replicates treated with a 57% ethanol solution were prepared to serve as controls. […] After the 24 hour reading, the larvae were extracted from the media to record any mortality.
Mortality observations were also made for the above protocol. The control was the 57% ethanol:43% water solution.

[2] = tested on: Aphis gossypii; assay: Melon aphid repellency on leaf choice assays; details: 3% compound in a Triton X:Water solution; n=100; control 50/50
From the text: Melon Aphid Repellency on Leaf Choice Assays Aphis gossypii are maintained on squash plants. Individual aphids (n=100) are given the choice between leaves with and without repellent treatments. A separate group of aphids are given a choice between untreated vs. untreated leaves as a control. The number of aphids choosing each leaf is counted both choice tests. The number of aphids choosing each treatment is compared to the control to determine the repellent effect.

[3] = tested on: psyllids; assay: Psyllid repellency on potato choice assays; details: 3% compound; potato plants; 100 psyllids per cage; control 50/50
From the text: Psyllid Repellency on Potato Choice Assays
(§1) Potato plants are sprayed with either a 3% solution of repellent chemical in a 5%:95% ETOH:Water or only 5%:95% ETOH:Water as a control. Two plants are placed in a screen cage, either a treatment vs control tree or a control vs control tree, 100 psyllids are released into each cage. The number of psyllids choosing each leaf is counted for both choice tests. The number of psyllids choosing each treatment is compared to the control to determine if there is a repellent effect.

[4] = tested on: sharpshooters; assay: Leafhopper repellency on citrus choice assays; details: 3% compound; citrus seedlings; 100 sharpshooters per cage; control 50/50
From the text: as §1, with “Leafhopper Repellency on Citrus Choice Assays Citrus seedlings” for “Potato plants”, “seedlings” for “plants”, “tree.” for “tree,”, “sharpshooters” for “psyllids”

[5] = tested on: Euschistus heros-Neotropical Brown Stink Bugs; assay: Stink bug feeding damage on soybean pods; details: 3% compound, soybean plants at R6 stage, 48 hours
Experimental: To compare the feeding/resting preference of stink bug adults for different plant parts, 10 pots with soybean plants at the R6 (pod-filling) stage of development are used. 5 pots of soybeans are sprayed with 3% of treatment in a 2% Triton X:water solution and 5 pots of soybean are treated with 2% Triton X:water solution as controls. Thirty stink bugs are placed individually in each cage and allowed to feed for 48 hours. Insects are removed and plant parts are collected for visual analysis of damage. Feeding damage on the pods is counted for both treatments. The selective antifeeding rate (%) formula is [(C−T)/(C+T)]×100, and the non-selective antifeeding rate (%) formula is [(C−T)/C)]×100, where C and T are the numbers of feeding damages on the control and treated plant pods, respectively.

[6] = tested on: Leptinotarsa decemlineata-Colorado Potatoe Beetles; assay: Choice feeding assay on potato leaf disks; details: 3% compound, larvae, 24 h
Experimental: For choice feeding assays, 3% alcohol solutions of the tested compounds are prepared. Disks (4.0 cm in diameter) are cut from potato leaves and are dipped in the test solutions or alcohol alone as a control. After the complete evaporation of the solvent, the disks are offered to 10 larvae. Control and treated disks are placed at alternate corners in Petri dishes (150 by 20 mm) lined with moistened filter paper (choice test). All dishes are placed in an incubator. Four replicates and 40 larva are used for each chemical. In each replicate, the insects are allowed to feed ad libitum for 24 h at 24 C under a 16:8 (L:D) photoperiod. After 24 h, the remaining uneaten area of each potato leaf disk is measured using a scanner and software. The selective antifeeding rate (%) formula is [(C−T)/(C+T)]×100, and the non-selective antifeeding rate (%) formula is [(C−T)/C)]×100, where C and T are the areas consumed by the control and treated leaf disks, respectively.

[7] = tested on: Popillia japonica; assay: Japanese beetle feeding damage on basil; details: 3% compound; basil leaf disks; adult beetle; 24 h
Experimental: Japanese Beetle Feeding Damage on Basil For choice feeding assays, 3% alcohol solutions of the tested compounds are prepared. Disks (4.0 cm in diameter) are cut from basil leaves and are dipped in the test solutions or alcohol alone as a control. After the complete evaporation of the solvent, the disks are offered to 1 adult beetle. All dishes are placed in an incubator. Four replicates are used for each chemical. After 24 h, the remaining uneaten area of each basil leaf disk is measured using a scanner and software. The selective antifeeding rate (%) formula is [(C−T)/(C+T)]×100, and the non-selective antifeeding rate (%) formula is [(C−T)/C)]×100, where C and T are the areas consumed by the control and treated leaf disks, respectively.

[8] = tested on: Dermestid spp.; assay: Dermestid beetle feeding damage on silk fabric; details: 3% compound; undyed silk disks; late instar larvae; 1 week
Experimental: Dermestid Beetle Feeding Damage on Silk Fabric
For feeding assays, 3% alcohol solutions of the tested compounds are prepared. Disks (4.0 cm in diameter) of undyed silk fabric are dipped in the test solutions or alcohol alone as a control. After the complete evaporation of the solvent, the disks are offered to 10 late instar larvae. All dishes are placed in an incubator. Four replicates are used for each chemical. After 1 week, the remaining uneaten area of each silk disk is measured using a scanner and software. The selective antifeeding rate (%) formula is [(C−T)/(C+T)]×100, and the non-selective antifeeding rate (%) formula is [(C−T)/C)]×100, where C and T are the areas consumed by the control and treated silk disks, respectively.

[9] = tested on: Tineola spp.; assay: Clothes moth feeding damage on silk fabric, choice test; details: 3% compound; silk disks; late instar larvae; 24 hours; control 50/50
Experimental: For feeding assays, 3% alcohol solutions of the tested compounds are prepared. Disks (2.0 cm in diameter) of undyed silk fabric are dipped in the test solutions or alcohol alone as a control. After the complete evaporation of the solvent, the disks are presented in a choice test to 10 late instar Tineola spp. larvae. All dishes are placed in an incubator in the dark. Four replicates are used for each chemical. After 24 hours, the number of individuals choosing to feed on each disk are counted.

[10] = tested on: Plodia interpunctella; assay: Feeding repellent assay for Indian meal moth larva on treated rice; details: 10% compound in a 5% Ethanol:95% water solution, third instar larvae, 1 week
Experimental: (§2) Feeding Repellent Assay for Indian Meal Moth Larva One gram of rice is weighed and treated with 2% by weight of each test chemical or ethanol as a control for each treatment and replicate. The grains are allowed to dry and then weighed again. Treated or control rice grains are placed in a petri dish. Third instar larvae are starved for 8 h and gently introduced into the center of each compartment. 20 larva are screened per treatment, and each experiment is repeated three times. The weight of rice grains is measured again after 1 week. The selective antifeeding rate (%) formula is [(C−T)/(C+T)]×100, and the non-selective antifeeding rate (%) formula is [(C−T)/C)]×100, where C and T are the areas consumed by the control and treated leaf disks, respectively.

[11] = tested on: Sitostroga cerealella; assay: Feeding repellent assay for Angoumois larva on treated rice; details: 10% compound in a 5% Ethanol:95% water solution, third instar larvae, 1 week
Experimental: Feeding Repellent Assay for Angoumois Larva
as §2, with “One” for “Feeding Repellent Assay for Indian Meal Moth Larva One”

[12] = tested on: brown marmorated stink bugs (BMSB); assay: Repellency as feeding deterrence in brown marmorated stink bugs, treated filter paper with green bean; details: control 38%
Experimental: A test was designed to measure the repellency as feeding deterrence in brown marmorated stink bugs (BMSB). Five replicates of 5 BMSBs were introduced into test arenas, containing one 60 mm×15 mm Petri dish with treated filter papers in which a food source (green bean) was attached, at the start of the test. The small Petri dishes containing the treated filter paper and food source were covered with a fitted Petri dish lid in between observation times, and were removed 5 minutes before each observation time to prevent stink bugs from feeding until sated. The distribution of the BMSBs was observed and documented hourly for 5 hours.

[13] = compound at 3.5% in a 57% Ethanol:43% water solution
[14] = compound at 2.5% in a 57% Ethanol:43% water solution

## CCCCCCCC1CC(=O)C=C(C)C1 (centres unmarked) [3-Methyl-5-Heptyl-2-Cyclohexenone]
[1]; [13]
  Increased Mortality over Control Mortality at 24 hours: 93%
  Repellency at 24 hours: 95%

## CCCC1CC(C)=CC(O)C1 (centres unmarked) [3-Methyl-5-Propyl-2-Cyclohexenol]
[1]; [13]
  Increased Mortality over Control Mortality at 24 hours: 9%
  Repellency at 24 hours: 30%

## CC(C)=CCC/C(C)=C/CC1CCCC1O (centres unmarked) [Apritol]
[2]
  Number of Aphids Choosing each Treatment: Treated: 30
  Number of Aphids Choosing each Treatment: Untreated: 70
[3]
  Number of Psyllids Choosing each Treatment: Treated: 30
  Number of Psyllids Choosing each Treatment: Untreated: 70
[4]
  Number of Psyllids Choosing each Treatment: Treated: 30
  Number of Psyllids Choosing each Treatment: Untreated: 70
[5]
  % Antifeedent Activity: 60%
[6]
  % Repellency: 15%
[7]
  % Repellency: 15%
[8]
  % Repellency: 15%
[9]
  Individuals choosing to feed on each disk: Treated: 20
  Individuals choosing to feed on each disk: Untreated: 80
[10]
  % Antifeedent Activity: 70%
[11]
  % Antifeedent Activity: 70%

## CC(C)=CCC/C(C)=C/CC1CCCC1=O (centres unmarked) [Apritone, apritone]
[2]
  Number of Aphids Choosing each Treatment: Treated: 30
  Number of Aphids Choosing each Treatment: Untreated: 70
[3]
  Number of Psyllids Choosing each Treatment: Treated: 30
  Number of Psyllids Choosing each Treatment: Untreated: 70
[4]
  Number of Psyllids Choosing each Treatment: Treated: 30
  Number of Psyllids Choosing each Treatment: Untreated: 70
[5]
  % Antifeedent Activity: 60%
[6]
  % Repellency: 15%
[7]
  % Repellency: 15%
[8]
  % Repellency: 15%
[9]
  Individuals choosing to feed on each disk: Treated: 20
  Individuals choosing to feed on each disk: Untreated: 80
[10]
  % Antifeedent Activity: 70%
[11]
  % Antifeedent Activity: 70%

## CCCCCCCC1CCCC(=O)O1 (centres unmarked) [Delta-dodecalactone]
[2]
  Number of Aphids Choosing each Treatment: Treated: 20
  Number of Aphids Choosing each Treatment: Untreated: 80
[3]
  Number of Psyllids Choosing each Treatment: Treated: 20
  Number of Psyllids Choosing each Treatment: Untreated: 80
[4]
  Number of Psyllids Choosing each Treatment: Treated: 20
  Number of Psyllids Choosing each Treatment: Untreated: 80
[5]
  % Antifeedent Activity: 80%
[6]
  % Repellency: 40%
[7]
  % Repellency: 40%
[8]
  % Repellency: 40%
[9]
  Individuals choosing to feed on each disk: Treated: 10
  Individuals choosing to feed on each disk: Untreated: 90
[10]
  % Antifeedent Activity: 70%
[11]
  % Antifeedent Activity: 70%

## CCCCCCCCC1CCC(=O)O1 (centres unmarked) [Gamma-Dodecalactone]
[12]; [13]
  Repellency averaged over 5 hours: 82%
[1]; [13]
  Repellency at 24 hours: 46%
[1]; in vivo
  Increased Mortality over Control Mortality at 24 hours: 37%

## CCCCCCCCCC1(C)CCC(=O)O1 (centres unmarked) [Gamma-Methyl Tridecalactone]
[12]; [13]
  Repellency averaged over 5 hours: 67%

## CCCCCC1C(=O)CCC1CC(=O)OC (stereo not drawn) [Methyl Dihydrojasmonate - High epi, Methyl Dihydrojasmonate]
[12]; [14]
  Repellency averaged over 5 hours: 39%

## CCCCCC1C(=O)CCC1CC(=O)OC (stereo not drawn) [Methyl Dihydrojasmonate - Low epi, Methyl Dihydrojasmonate]
[12]; [14]
  Repellency averaged over 5 hours: 58%

## CC1CCC(C(C)(C)O)C(O)C1 (centres unmarked) [Para-Menthanediol, p-Menthane-3,8-diol, reference compound]
[12]; [13]
  Repellency averaged over 5 hours: 91%
[1]; [13]
  Increased Mortality over Control Mortality at 24 hours: 3%
  Repellency at 24 hours: 10%

## CCCCCC1C(=O)CCC1CC(=O)OCC=C(C)C (centres unmarked) [Prenyl Dihydrojasmonate]
[1]; [13]
  Increased Mortality over Control Mortality at 24 hours: 34%
  Repellency at 24 hours: 79%

## CCCCCC1C(=O)CCC1CC(=O)OCCC (stereo not drawn) [Propyl Dihydrojasmonate - High epi, Propyl Dihydrojasmonate]
[12]; [14]
  Repellency averaged over 5 hours: 49%

## CCCCCC1C(=O)CCC1CC(=O)OCCC (stereo not drawn) [Propyl Dihydrojasmonate - Low epi, Propyl Dihydrojasmonate]
[12]; [14]
  Repellency averaged over 5 hours: 74%

Source: patent US11224223B2, “Feeding deterrence of pests such as Hemiptera, Lepidoptera and Coleoptera” (BEDOUKIAN RESEARCH, INC., priority 2012, dated 2022)
